Tested on: A549
Assay: Antiproliferative activity against human A549 cells assessed as cell growth inhibition incubated for 72 hrs by CellTiter96 Aqueous one solution cell proliferation assay
Format: functional, cell-based
Conditions: A549, 72 h

| SMILES | IC50 |
| --- | --- |
| COc1ccc(C(C)(O)c2ncnc3ccc(Cl)cc23)cc1 (stereo not given) | 80 nM |
| COc1ccc(C(C)(O)c2nc(-c3ccc(C(F)(F)F)cc3)nc3ccccc23)cc1 (stereo not given) | 1590 nM |
| COc1ccc(C(C)(O)c2ncnc3c(Cl)cccc23)cc1 (stereo not given) | 240 nM |
| COc1ccc(C(C)(O)c2nc(-c3c(C)noc3C)nc3ccccc23)cc1 (stereo not given) | 59 nM |
| COc1ccc(C(C)(O)c2ncnc3cc(C)ccc23)cc1 (stereo not given) | > 25000 nM |
| COc1ccc(C(C)(O)c2ncnc3cccc(F)c23)cc1 (stereo not given) | 12000 nM |
| COc1ccc(C(C)(O)c2nc(-c3ccc4c(c3)OCO4)nc3ccccc23)cc1 (stereo not given) | 1170 nM |
| COc1ccc(C(C)(O)c2ncnc3ccc(OC)cc23)cc1 (stereo not given) | 5160 nM |
| COc1ccc(C(C)(O)c2ncnc3c(C)cccc23)cc1 (stereo not given) | 1560 nM |
| COc1ccc(C(C)(O)c2nc(-c3ccsc3C(C)=O)nc3ccccc23)cc1 (stereo not given) | 52 nM |
| COc1ccc(C(C)(O)c2ncnc3ccc(C)cc23)cc1 (stereo not given) | 1100 nM |
| COc1ccc(C(C)(O)c2ncnc3cc(Cl)ccc23)cc1 (stereo not given) | 870 nM |
| COc1ccc(C(C)(O)c2nc(-c3ccc(F)cc3)nc3ccccc23)cc1 (stereo not given) | 48 nM |

Next, values leading:

| IC50 | SMILES |
| --- | --- |
| 380 nM | C/C=C\c1nc(C(C)(O)c2ccc(OC)cc2)c2ccccc2n1 (stereo not given) |
| 760 nM | COc1ccc(C(C)(O)c2nc(N3CCC(F)CC3)nc3ccccc23)cc1 (stereo not given) |
| 3670 nM | COc1ccc(C(C)(O)c2nc(N3CCC(Cl)CC3)nc3ccccc23)cc1 (stereo not given) |
| 4910 nM | COc1ccc(C(C)(O)c2nc(N3CCC(F)(F)CC3)nc3ccccc23)cc1 (stereo not given) |
| 1100 nM | COc1ccc(C(C)(O)c2nc(N3CCC3)nc3ccccc23)cc1 (stereo not given) |
| 1260 nM | COc1ccc(C(C)(O)c2nc(N3CCCC3)nc3ccccc23)cc1 (stereo not given) |
| 48 nM | COc1ccc(C(C)(O)c2nc(-c3cccs3)nc3ccccc23)cc1 (stereo not given) |
| 50 nM | COc1ccc(C(C)(O)c2nc(-n3cccc3)nc3ccccc23)cc1 (stereo not given) |
| 20 nM | CNc1nc(C(C)(O)c2ccc(OC)cc2)c2ccccc2n1 (stereo not given) |
| 254 nM | COc1ccc(C(C)(O)c2nc(-c3cn[nH]c3)nc3ccccc23)cc1 (stereo not given) |
| 27 nM | C=Cc1nc(C(C)(O)c2ccc(OC)cc2)c2ccccc2n1 (stereo not given) |
| 2440 nM | COc1ccc(C(C)(O)c2nc(N3CCSCC3)nc3ccccc23)cc1 (stereo not given) |
